These results are taken from BindingDB's records for doi:10.7270/Q2KK9971 (Nmmlsc, 2009).

This assay has as its target T1, GTPase KRas [1-37] (Homo sapiens, UniProt G3V5T7).
T1 construct: 1-37
The assay is described as follows: inhibition of fluorescent GTP binding to wild-type Ras – biochemical, pyrazoline analogs, multiplex bead flow cytometry, SAR follow-up (AID 2047).

The mark [1] stands for this setting: inactive by the depositor's call.

The structures appear in SMILES notation. Where only a bound is given, the exact number is not on record here.

T1 sequence (G3V5T7 whole entry): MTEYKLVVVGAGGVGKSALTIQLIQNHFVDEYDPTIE

With `COc1ccc(C2CC(c3ccccc3)=NN2c2ccc(S(N)(=O)=O)cc2)cc1OC` (stereo unspecified) [UNM-0000305823], the EC50 is greater than 30 µM.

Turning to `COc1ccc(C2CC(c3ccccc3)=NN2c2ccc(Cl)c(C(=O)O)c2)cc1` (stereo unspecified), the EC50 under setting [1] was determined as 1.03 µM.

Regarding `NS(=O)(=O)c1ccc(N2N=C(c3ccc(Cl)cc3)CC2c2ccccc2)cc1` (stereo unspecified), under setting [1], the response was half-maximal at 0.096 µM (EC50).

`O=C(O)c1ccc(N2N=C(c3ccccc3)CC2c2ccccc2)cc1` (stereo unspecified): the concentration giving a half-maximal response (EC50) was greater than 30 µM.

Consider `O=S(=O)(c1ccc(N2N=C(c3ccc(Br)cc3)CC2c2ccccc2)cc1)C(F)F` (stereo unspecified) [5-(4-bromophenyl)-2-[4-(difluoromethylsulfonyl)phenyl]-3-phenyl-3,4-dihydropyrazole], for which the EC50 is greater than 30 µM.

`Cc1ccccc1C1CC(c2ccccc2)=NN1c1ccc(S(N)(=O)=O)cc1` (stereo unspecified) [UNM-0000306148] displayed an EC50 greater than 30 µM.

As for `COc1ccc(-c2cc(-c3ccccc3)nn2-c2ccc(S(N)(=O)=O)cc2)cc1` [4-[5-(4-methoxyphenyl)-3-phenylpyrazol-1-yl]benzenesulfonamide], the EC50 was greater than 30 µM.

As for `COc1ccc(C2CC(c3ccc(F)cc3)=NN2c2ccccc2)cc1OC` (stereo unspecified) [UNM-0000305864], the EC50 is greater than 30 µM.

In the case of `CC(=O)Oc1ccc(C2=NN(c3ccccc3)C(c3ccccc3)C2)cc1` (stereo unspecified), the EC50 is greater than 30 µM.

Consider `COc1ccc(C2=NN(c3ccccc3)C(c3ccc(Cl)cc3)C2)cc1` (stereo unspecified) [UNM-0000305833], for which the concentration for a half-maximal effect (EC50) was greater than 30 µM.

`O=[N+]([O-])c1cccc(C2C[C-](c3ccccc3)N=[N+]2c2ccccc2)c1` (stereo unspecified) [UNM-0000305857] had a concentration for a half-maximal effect (EC50) greater than 30 µM.

Turning to `COc1ccc(C2=NN(c3ccc(S(N)(=O)=O)cc3)C(c3ccc(OC)cc3)C2)cc1` (stereo unspecified) [4-[3,5-bis(4-methoxyphenyl)-3,4-dihydropyrazol-2-yl]benzenesulfonamide], the EC50 is greater than 30 µM.

Regarding `Cc1ccc(-c2cc(C(F)(F)F)nn2-c2ccc(S(N)(=O)=O)cc2)cc1` [Celecoxib], the 50% effective concentration (EC50) is greater than 30 µM.

`COc1ccc(C2CC(c3cccc(OC)c3)=NN2c2ccc(S(N)(=O)=O)cc2)cc1` (stereo unspecified) [4-[5-(3-methoxyphenyl)-3-(4-methoxyphenyl)-3,4-dihydropyrazol-2-yl]benzenesulfonamide] returned an EC50 greater than 30 µM.

On to `COc1ccc(C2CC(c3ccccc3F)=NN2c2ccc(S(N)(=O)=O)cc2)cc1` (stereo unspecified) [UNM-0000306110], for which the EC50 is greater than 30 µM.

The molecule `O=[N+]([O-])c1ccc([N+]2=N[C-](c3ccccc3)CC2c2ccc(O)cc2)cc1` (stereo unspecified) [UNM-0000305838] displayed an EC50 greater than 30 µM.

`NS(=O)(=O)c1ccc(N2N=C(c3ccccc3)CC2c2ccccc2)cc1` (stereo unspecified) [4-(3,5-diphenyl-3,4-dihydropyrazol-2-yl)benzenesulfonamide] gave an EC50 greater than 30 µM.

In turn, `COc1ccc(C2=NN(c3ccc(Cl)cc3)C(c3ccccc3F)C2)cc1` (stereo unspecified) [UNM-0000305863] displayed an EC50 greater than 30 µM.

Take `COc1ccc(C2CC(c3cccc(C)c3)=NN2c2ccc(S(N)(=O)=O)cc2)cc1` (stereo unspecified) [UNM-0000306153]: the EC50 is greater than 30 µM.

As for `COc1ccc(C2CC(c3ccc(C(F)(F)F)cc3)=NN2c2ccc(S(N)(=O)=O)cc2)cc1` (stereo unspecified) [4-[3-(4-methoxyphenyl)-5-[4-(trifluoromethyl)phenyl]-3,4-dihydropyrazol-2-yl]benzenesulfonamide], the EC50 was greater than 30 µM.

Molecule `NS(=O)(=O)c1ccc(N2N=C(c3ccccc3)CC2c2ccccc2Cl)cc1` (stereo unspecified) [KUC103446N] yielded an EC50 greater than 30 µM.

Turning to `NS(=O)(=O)c1ccc(N2N=C(c3ccccc3)CC2c2ccc(Br)cc2)cc1` (stereo unspecified) [UNM-0000306160], the EC50 is greater than 30 µM.

`COc1ccc(C2CC(c3ccccc3Cl)=NN2c2ccc(S(N)(=O)=O)cc2)cc1` (stereo unspecified) [4-[5-(2-chlorophenyl)-3-(4-methoxyphenyl)-3,4-dihydropyrazol-2-yl]benzenesulfonamide] returned an EC50 greater than 30 µM.

`COc1ccc(C2CC(c3cccc(Br)c3)=NN2c2ccc(S(N)(=O)=O)cc2)cc1` (stereo unspecified) [UNM-0000306113] registered an EC50 greater than 30 µM.

As to `COc1cccc(C2CC(c3ccccc3)=NN2c2ccc(S(N)(=O)=O)cc2)c1` (stereo unspecified) [4-[3-(3-methoxyphenyl)-5-phenyl-3,4-dihydropyrazol-2-yl]benzenesulfonamide], the EC50 was greater than 30 µM.

The molecule `COc1ccc(C2CC(c3ccccc3C)=NN2c2ccc(S(N)(=O)=O)cc2)cc1` (stereo unspecified) [UNM-0000306152] returned an EC50 greater than 30 µM.
